In brackets after ≈: the same amount, converted by molar mass. Counter-ions that a name gives are not always drawn. Where a SMILES comes first, the peptide text is derived from it.
Experiments:
MRSA LAC [1] = assay: microbe, parasite or virus in culture; type: cell-based, Staphylococcus aureus; conditions: for MBC/MIC: MRSA LAC, wound isolate
Experimental: (§1) To determine whether the antibacterial activity of [R4W4] is bacteriostatic or bactericidal against clinical isolates of multidrug-resistant bacterial isolates, MIC and MBC were determined using the microbroth dilution method. Bacteriostatic activity was defined as a ratio of the MBC/MIC greater than four and bactericidal activity as MBC/MIC ratio ≤ 4 [33]. We added aliquots of test samples (256 μg/mL concentration of [R4W4] or vancomycin as a control prepared in TSB) to the first well of microplates. MHB media was added to the remaining wells. Two-fold serial dilutions were performed, starting with the highest drug concentration in well 1, and the dilution process continued. A bacterial aliquot of 1/150 dilution was prepared with a 0.5 McFarland standard solution from an overnight culture of the tested bacteria isolate. Bacteria were added to the microplate and placed into wells with the drug dilutions. The microplates were incubated overnight for 24 h at 37 °C. [R4W4] was synthesized and purified, as reported earlier.

MRSA Mec II = assay: microbe, parasite or virus in culture; type: cell-based, Staphylococcus aureus; conditions: for MBC/MIC: MRSA Mec II, blood isolate
Experimental: as §1

MRSA Clin 6 = assay: microbe, parasite or virus in culture; type: cell-based, Staphylococcus aureus; conditions: for MBC/MIC: MRSA Clin 6, lung isolate
Experimental: as §1

MRSA Mec 1 = assay: microbe, parasite or virus in culture; type: cell-based, Staphylococcus aureus; conditions: for MBC/MIC: MRSA Mec 1, blood isolate
Experimental: as §1

MRSA Mec IV = assay: microbe, parasite or virus in culture; type: cell-based, Staphylococcus aureus; conditions: for MBC/MIC: MRSA Mec IV, lung isolate
Experimental: as §1

B. subtilis 21332 = assay: microbe, parasite or virus in culture; type: cell-based, Bacillus subtilis; conditions: for MBC/MIC: B. subtilis ATCC 21332
Experimental: as §1

in vitro = conditions: human, 25% human serum
Experimental: Fresh human serum (4 mL) was centrifuged at 12,500× g for 15 min at 4 °C to remove the lipids. A 25% human serum sample was prepared by adding 375 µL of the human serum supernatant to 1125 µL of RPMI buffer. […] The test sample was incubated in a water bath at 37 °C until a predetermined time interval (0, 1, 2, 4, 6, 8.5, 12, and 20 h). At the time intervals, a 150 µL aliquot test sample was added to a 300 µL cocktail solution [ethanol/formic acid (98:2 v/v) mixture] to cease the reaction. The test samples of aliquots were stored on dry ice for 20 min and then centrifuged at 17,200× g for 20 min. For LC-MS analysis, 150 µL supernatant aliquot test samples were stored at −20 °C [54].
A 20 μL aliquot of each sample was analyzed using an Xterra MS C18 column (3.9 × 150 mm, 5 μm, Waters, MA, USA), Nexera XR, and Prominence Shimadzu LC-20AD XR systems (Shimadzu Corporation, Kyoto, Japan) coupled with Shimadzu LC-MS-2020 mass spectrometer (Shimadzu, OR, USA). A two-component LC system consisted of mobile phase A (0.1% formic acid and 10% acetonitrile in water) and mobile phase B (0.1% formic acid and 100% acetonitrile). The flow rate was set at 1.0 mL/min. The Xterra MS C18 column at 40 °C was allowed to equilibrate with 95% mobile phase A. Peptides were loaded to the column and washed for 5 min with 95% mobile Phase A. Analytes were separated using a binary gradient of 0–95% mobile Phase B for 25 min. […] MS was conducted in multiple reaction monitoring and positive electrospray ionization mode. Fourteen concentrations of [R4W4] prepared by two-fold dilution of 200 μg/mL to 0.39 μg/mL were used to prepare calibration curves. The calibration curves were plotted using weighted (1/×2) least-squares linear regression analysis of peptide mass spectra area under the curve (AUC) versus concentration.

MRSA USA300 [2] = assay: microbe, parasite or virus in culture; conditions: for MIC against index isolate (no serial passage): MRSA USA300 index strain
Experimental: MRSA USA300 bacteria from −80 °C freezer stock were cultured on an LB agar plate overnight. One bacteria colony was added to a 6 mL fresh MHB with constant shaking at 200 rpm at 37 °C. The bacteria were transferred daily by inoculating 10 μL of stationary-phase culture into […] of MHB in a 1 mL cap-clipped Eppendorf tube. Then, 20 μL of bacteria aliquot was added to […] of MHB broth, with or without [R4W4], at a final concentration of the MIC overnight in an […] at 37 °C for five transfers. […] […] Experiments were performed in triplicates. Every time we increased the concentration of [R4W4], a sample of the induction generation was inoculated into 20% (vol/vol) glycerol and stored at −70 °C. The final MIC values of [R4W4], vancomycin, and levofloxacin were determined by modified microbroth dilution assay.

MRSA USA300 [3] = assay: Membrane depolarization assay with DisC3(5); type: cell-based, Staphylococcus aureus
Experimental: Buffer A (5 mM HEPE and 5 mM glucose) and Buffer B (5 mM HEPE, 5 mM glucose, and 0.2 mM EDTA) solutions were prepared and filtered using 0.2 μm filters. Bacteria strains (MRSA and E. coli) from a −80 °C freezer were inoculated on an agar plate overnight. Two to three colonies of each bacteria strain were inoculated in 8 mL Cation-Adjusted Muller-Hinton Broth (CAMHB) and allowed to grow overnight. The overnight grown MRSA or E. coli bacteria was diluted with a fresh CAMHB (1:100) and incubated at 37 °C for 5 h with shaking at 220 rpm. The resulting bacteria cells at the growth phase were centrifuged at 3700× g at 4 °C for 10 min. The bacteria pellets were washed three times with buffer A and then resuspended in buffer A to an OD600nm of 0.05.
On the other hand, E. coli was resuspended in buffer B to an OD600nm of 0.05 to facilitate fluorescence dye DSC5 uptake. Then, 20 mL of each bacteria suspension was mixed with 10 μL of 100 μM dye in a dark place for 45 min. After incubation, potassium chloride was added to the two bacteria suspensions to a final concentration. […] The fluorescence intensity was measured at excitation and emission wavelengths of 622 nm and 670 nm, respectively.

MRSA LAC [4] = assay: Thermal stability by MIC after heat exposure; type: cell-based, Staphylococcus aureus; conditions: [R4W4] stock exposed to 25, 50, 75 and 100 °C (10 min), then microbroth dilution
Experimental: As per temperature sensitivity, the [R4W4] stock solution (1.15 mg/mL) in a 2 mL Eppendorf microtube was exposed to 100 °C for 10 min. After the thermal exposure, the [R4W4] antibacterial effectiveness was evaluated against MRSA using a microbroth dilution assay, as explained above.

[5] = Staphylococcus aureus, MRSA, 24 h

Compound: N=C(N)NCCC[C@@H]1NC(=O)[C@H](CCCNC(=N)N)NC(=O)[C@H](CCCNC(=N)N)NC(=O)[C@H](Cc2c[nH]c3ccccc23)NC(=O)[C@H](Cc2c[nH]c3ccccc23)NC(=O)[C@H](Cc2c[nH]c3ccccc23)NC(=O)[C@H](Cc2c[nH]c3ccccc23)NC(=O)[C@H](CCCNC(=N)N)NC1=O [[R4W4]] (cyclo(RRRRWWWW))
- MBC (MRSA LAC [1]; LAC, 24 h): 16 µg/mL (≈ 11.7 µM)
- MBC/MIC (MRSA LAC [1]): 4
- MBC/MIC (MRSA Mec II): 2
- MBC (MRSA Mec II; Mec II, 24 h): 8 µg/mL (≈ 5.84 µM)
- MIC (MRSA Mec II; Mec II, 24 h): 4 µg/mL (≈ 2.92 µM)
- MBC (MRSA Clin 6; Clin 6, 24 h): 32 µg/mL (≈ 23.4 µM)
- MIC (MRSA Clin 6; Clin 6, 24 h): 32 µg/mL (≈ 23.4 µM)
- MBC/MIC (MRSA Clin 6): 1
- MBC/MIC (MRSA Mec 1): 2
- MBC (MRSA Mec 1; Mec 1, 24 h): 4 µg/mL (≈ 2.92 µM)
- MIC (MRSA Mec 1; Mec 1, 24 h): 2 µg/mL (≈ 1.46 µM)
- MBC/MIC (MRSA Mec IV): 2
- MBC (MRSA Mec IV; Mec IV, 24 h): 64 µg/mL (≈ 46.7 µM)
- MIC (MRSA Mec IV; Mec IV, 24 h): 32 µg/mL (≈ 23.4 µM)
- MBC (B. subtilis 21332; 21332, 24 h): 8 µg/mL (≈ 5.84 µM)
- MIC (B. subtilis 21332; 21332, 24 h): 4 µg/mL (≈ 2.92 µM)
- MBC/MIC (B. subtilis 21332): 2
- half-life at 100 µg/mL (in vitro): > 1200 min
- remaining at 1 h, 100 µg/mL (in vitro): ~99%
- remaining at 2 h, 100 µg/mL (in vitro): 93%
- remaining at 6 h, 100 µg/mL (in vitro): 80%
- remaining at 12 h, 100 µg/mL (in vitro): 77%
- remaining at 20 h, 100 µg/mL (in vitro): 76%
- final [R4W4] concentration at which growth was achieved at the end of serial passage (MRSA USA300 [2]; MRSA USA300, 35 passages, stepwise increasing concentration): 32 µg/mL
- MIC against serial passaged [R4W4]-resistant isolate (MRSA USA300 [2]; MRSA USA300 after serial passage in [R4W4], MIC in duplicate): 16 µg/mL (≈ 11.7 µM)
- MIC against index isolate (no serial passage) (MRSA USA300 [2]; MIC in duplicate): 4 µg/mL (≈ 2.92 µM)
- DisC3(5) fluorescence (membrane depolarization) (MRSA USA300 [3]; [R4W4] at 2 × MIC): fluorescence decreases below that of vancomycin and control
- DisC3(5) fluorescence (membrane depolarization) (MRSA USA300 [3]; [R4W4] at 16 × MIC): enhanced fluorescence signal that surpassed that of nisin
- MIC after thermal exposure (MRSA LAC [4]): 4 µg/mL (≈ 2.92 µM)

Compound: CN[C@H](CC(C)C)C(=O)N[C@H]1C(=O)N[C@@H](CC(N)=O)C(=O)N[C@H]2C(=O)N[C@H]3C(=O)N[C@H](C(=O)N[C@H](C(=O)O)c4cc(O)cc(O)c4-c4cc3ccc4O)[C@H](O)c3ccc(c(Cl)c3)Oc3cc2cc(c3O[C@@H]2O[C@H](CO)[C@@H](O)[C@H](O)[C@H]2O[C@H]2C[C@](C)(N)[C@H](O)[C@H](C)O2)Oc2ccc(cc2Cl)[C@H]1O [Vancomycin, Vancomycin Hydrochloride, reference compound]
- MBC/MIC (MRSA LAC [1]): 2
- MBC (MRSA LAC [1]; Staphylococcus aureus, MRSA): 2 µg/mL
- MIC (MRSA LAC [1]; [5]): 1 µg/mL
- MBC/MIC (MRSA Mec II): 2
- MBC (MRSA Mec II; Staphylococcus aureus, MRSA): 4 µg/mL
- MIC (MRSA Mec II; [5]): 2 µg/mL
- MBC/MIC (MRSA Clin 6): 4
- MBC (MRSA Clin 6; Staphylococcus aureus, MRSA): 8 µg/mL
- MIC (MRSA Clin 6; [5]): 2 µg/mL
- MBC/MIC (MRSA Mec 1): 2
- MBC (MRSA Mec 1; Staphylococcus aureus, MRSA): 2 µg/mL
- MIC (MRSA Mec 1; [5]): 1 µg/mL
- MBC/MIC (MRSA Mec IV): 4
- MBC (MRSA Mec IV; Staphylococcus aureus, MRSA): 8 µg/mL
- MIC (MRSA Mec IV; [5]): 2 µg/mL
- MBC/MIC (B. subtilis 21332): 2
- MBC (B. subtilis 21332; Bacillus subtilis, ATCC21332): 0.5 µg/mL
- MIC (B. subtilis 21332; Bacillus subtilis, ATCC21332, 24 h): 0.25 µg/mL
- MIC against index isolate (no serial passage) (MRSA USA300 [2]; MIC in duplicate): 0.5 µg/mL
- change in MIC after serial passage (MRSA USA300 [2]; MRSA USA300 passaged versus index strain): 4 folds
- MIC (MRSA USA300 [2]; Staphylococcus aureus, MRSA|USA300, read-out: MIC against serial passaged [R4W4]-resistant isolate): 4 µg/mL
- DisC3(5) fluorescence versus control (MRSA USA300 [3]; controls at 100 µg/mL): no significant difference

Source: publication PMC11201061, “Mechanistic Study of Antimicrobial Effectiveness of Cyclic Amphipathic Peptide [R4W4] against Methicillin-Resistant Staphylococcus aureus Clinical Isolates” (Antibiotics, 2024)
